Holding throughout (assay): level (log10 ratio to DMSO vehicle control); higher = higher biomarker level / cell amount than vehicle control
Compound in test [1]: C=CC(=O)OCC(F)(F)C(F)(F)C(F)(F)C(F)(F)C(F)(F)C(F)(F)C(F)(F)C(F)F [1H,1H,9H-Perfluorononyl acrylate]
The settings on record: in DMSO. The procedure: (§1)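 BioMAP Diversity Plus panel of 12 human primary cell co-culture systems (3C, 4H, LPS, SAg, BT, BF4T, BE3C, CASM3C, HDF3CGF, KF3CT, MyoF, Mphg). Compounds were added 1 h before stimulation and left for 24 h (MyoF 48 h; BT 72 h for soluble read-outs or 6 d for IgG). Biomarkers were read by ELISA, cytotoxicity by SRB, PBMC viability and proliferation by Alamar Blue. Each well value was divided by the mean of 8 DMSO control wells on the same plate and log10 transformed; duplicate blinded samples were tested at 4 concentrations.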

Compound in a further test: O=C(O)C(F)(F)C(F)(F)C(=O)O [Tetrafluorosuccinic acid]
The settings on record: in DMSO. The procedure: as §1

Compound in test [2]: O=C(CC(=O)C(F)(F)C(F)(F)C(F)(F)F)c1cccs1 [(Perfluorobutyryl)-2-thenoylmethane]
The settings on record: in DMSO. The procedure: as §1

Compound in test [3]: FC(F)(I)C(F)(F)C(F)(F)C(F)(F)C(F)(F)C(F)(F)I [1,6-Diiodoperfluorohexane]
The settings on record: 6700 nM; in DMSO. On the procedure: as §1

Compound in another test: O=C(O)C(F)(F)C(F)(F)C(F)(F)C(F)(F)C(F)(F)C(F)(F)C(F)(F)F [Perfluorooctanoic acid]
The settings on record: in DMSO. The procedure:
as §1

Compound in test [4]: C=CC(=O)OCC(F)(F)C(F)(F)C(F)(F)C(F)(F)COC(=O)C=C [1H,1H,6H,6H-Perfluorohexane-1,6-diol diacrylate]
Particulars: 6700 nM; in DMSO. On the procedure:
as §1

Compound in test [5]: OCCC(F)(F)C(F)(F)C(F)(F)C(F)(F)C(F)(F)C(F)(F)C(F)(F)C(F)(F)F [8:2 Fluorotelomer alcohol]
Particulars: 6700 nM; in DMSO. The procedure: as §1

Compound in test [6]: O=C(O)C(F)(F)C(F)(F)C(F)(F)C(F)(F)C(F)(F)C(F)(F)C(F)(F)F [Ammonium perfluorooctanoate]
The settings on record: in DMSO. On the procedure:
as §1

Compound in test [7]: OCCCC(F)(F)C(F)(F)C(F)(F)C(F)(F)C(F)(F)C(F)(F)C(F)(F)C(F)(F)F [3-(Perfluorooctyl)propanol]
The settings on record: 6700 nM; in DMSO. On the procedure:
as §1

± gives the standard deviation of the averaged measurements.

Regarding SAg:CXCL9/MIG, the “level (log10)” value was -0.0135 ± 0.0021 in [1] (6700 nM); 0.003 ± 0.0099 in test [1] (20000 nM); -0.0155 ± 0.0078 in test [1] (60000 nM); -0.006 ± 0.0014 with Tetrafluorosuccinic acid (6700 nM); 0.003 in the test with Tetrafluorosuccinic acid (20000 nM); 0.013 ± 0.0099 with Tetrafluorosuccinic acid (60000 nM). Besides, the “level (log10)” value in test [2] (6700 nM) is -0.0075 ± 0.0035; in test [2] (20000 nM), -0.0245 ± 0.011; in test [3] it was -0.008; in the test with Perfluorooctanoic acid (6700 nM), -0.0085 ± 0.0021; with Perfluorooctanoic acid (20000 nM), -0.008 ± 0.0028; with Perfluorooctanoic acid (60000 nM) it was 0.004 ± 0.017. Moreover, the “level (log10)” value in test [4] is -0.009 ± 0.018; in [5], -0.006 ± 0.0014; in test [6] (6700 nM), -0.004; in test [6] (20000 nM), 0.003 ± 0.013; in test [6] (60000 nM), 0.009 ± 0.0085; in [7], -0.0205 ± 0.0078.

Regarding BF4T:MMP-9, the “level (log10)” value in test [1] (6700 nM) was 0.0145 ± 0.019; in test [1] (20000 nM), 0.0235 ± 0.019; in [1] (60000 nM), 0.031 ± 0.0014; with Tetrafluorosuccinic acid (6700 nM), -0.003 ± 0.021; with Tetrafluorosuccinic acid (20000 nM) it was -0.0075 ± 0.022; with Tetrafluorosuccinic acid (60000 nM), -0.014 ± 0.0085. In addition, the “level (log10)” value was -0.0225 ± 0.0021 in [2] (6700 nM); -0.146 ± 0.039 in [2] (20000 nM); -0.059 in test [3]; -0.006 ± 0.0057 in the test with Perfluorooctanoic acid (6700 nM); 0.02 ± 0.013 with Perfluorooctanoic acid (20000 nM); 0.0215 ± 0.013 with Perfluorooctanoic acid (60000 nM). Besides, the “level (log10)” value in [4] is 0.0005 ± 0.00071; in test [5], -0.0325 ± 0.0078; in test [6] (6700 nM), 0.017 ± 0.023; in test [6] (20000 nM), 0.028 ± 0.0057; in [6] (60000 nM), 0.0375 ± 0.025; in [7], 0.0155 ± 0.057.

As for BF4T:PAI-I, the “level (log10)” value in [1] (6700 nM) was 0.007 ± 0.0057; in test [1] (20000 nM), 0.003 ± 0.0085; in test [1] (60000 nM) it was 0.0005 ± 0.012; with Tetrafluorosuccinic acid (6700 nM), -0.0075 ± 0.012; with Tetrafluorosuccinic acid (20000 nM) it was -0.0025 ± 0.018; with Tetrafluorosuccinic acid (60000 nM), 0.0035 ± 0.00071. The “level (log10)” value in [2] (6700 nM) was -0.0085 ± 0.0092; in [2] (20000 nM), -0.125 ± 0.014; in test [3], -0.072; in the test with Perfluorooctanoic acid (6700 nM) it was 0.0005 ± 0.0021; with Perfluorooctanoic acid (20000 nM), 0.0015 ± 0.0021; in the test with Perfluorooctanoic acid (60000 nM), -0.007 ± 0.0099. The “level (log10)” value was -0.015 ± 0.0014 in test [4]; -0.0135 ± 0.0035 in test [5]; 0.011 ± 0.0085 in test [6] (6700 nM); 0.0055 ± 0.0021 in [6] (20000 nM); 0.0185 ± 0.016 in test [6] (60000 nM); -0.016 ± 0.024 in [7].

Take BF4T:IL-1alpha: the “level (log10)” value in [1] (6700 nM) was found to be 0.007 ± 0.0071; in test [1] (20000 nM), 0.017 ± 0.014; in test [1] (60000 nM), 0.005 ± 0.013; in the test with Tetrafluorosuccinic acid (6700 nM), 0.023 ± 0.02; in the test with Tetrafluorosuccinic acid (20000 nM) it was 0.0145 ± 0.025; with Tetrafluorosuccinic acid (60000 nM) it was 0.0335 ± 0.016. Further, the “level (log10)” value in test [2] (6700 nM) was -0.041; in [2] (20000 nM) it was -0.0615 ± 0.011; in test [3], -0.017; with Perfluorooctanoic acid (6700 nM), -0.009 ± 0.0057; in the test with Perfluorooctanoic acid (20000 nM), -0.0125 ± 0.018; in the test with Perfluorooctanoic acid (60000 nM), -0.0055 ± 0.018. The “level (log10)” value in [4] is -0.0155 ± 0.025; in [5], 0.005; in test [6] (6700 nM), -0.02 ± 0.014; in test [6] (20000 nM), -0.0235 ± 0.0035; in [6] (60000 nM) it was -0.0365 ± 0.015; in test [7], -0.012 ± 0.0014.

For SAg:Proliferation, the “level (log10)” value is -0.024 ± 0.0014 in [1] (6700 nM); -0.166 ± 0.029 in test [1] (20000 nM); -0.58 ± 0.14 in test [1] (60000 nM); 0.017 ± 0.04 with Tetrafluorosuccinic acid (6700 nM); -0.0205 ± 0.032 in the test with Tetrafluorosuccinic acid (20000 nM); 0.049 ± 0.027 with Tetrafluorosuccinic acid (60000 nM). Also, the “level (log10)” value in test [2] (6700 nM) is -0.298 ± 0.019; in [2] (20000 nM), -0.585; in [3] it was -0.028; with Perfluorooctanoic acid (6700 nM) it was 0.044 ± 0.0085; with Perfluorooctanoic acid (20000 nM), 0.041; with Perfluorooctanoic acid (60000 nM) it was 0.016 ± 0.025. In addition, the “level (log10)” value in test [4] is -0.296 ± 0.063; in test [5], -0.064 ± 0.028; in test [6] (6700 nM), 0.002 ± 0.0085; in test [6] (20000 nM), 0.0175 ± 0.029; in test [6] (60000 nM), 0.044 ± 0.044; in test [7], -0.005 ± 0.023.

The values above are taken from the supplement of paper PMC10331698.
